Assay results reported in patent publication US8796285B2, “Pyrazolo [1,5-a]-pyrimidones derivatives and pharmaceutical compositions and uses thereof” (Hebei Medical University, priority 2009, dated 2014).
Like-named read-outs stand apart in the source and are kept apart here.

What was measured:
[1] = molecular target: KCNQ4 potassium ion channel (Homo sapiens, UniProt P56696); experiment: High throughput atomic absorption Rb+ efflux testing, CHO cell of KCNQ4 channel; type: cell-based; details: for EC50: CHO cell of KCNQ4 channel
Excerpt: Atomic absorption Rb^+ efflux testing is a fast and safe selection method for high throughput potassium channel moderator, and is characterized in that the activity of the ion channel and the control effect of the opener are directly reflected. Rb and K have similar atomic size, and potassium ion channel is permeable to Rb^+. By testing concentration of the Rb^+ efflux, a status of the potassium channel, which is an open status or a close status, can be determined. Rb has specific absorption at 780 nm, and Rb^+ concentration can be determined by atomic absorption spectroscopy. Accordingly, analysis method of atomic absorption spectroscopy can be used to select the opener/inhibitor of potassium channel through high throughput of Rb^+ efflux.
Stable cell transfer of CHO cell of KCNQ4 channel at log phase and inoculate in 96-well culture plate at a density of 2×10^4 unit/well. Each concentration has a triplicate-hole setting, and a control setting with solvent of corresponding concentration. Allow growth against the well-wall overnight, then discard the culture medium, add 200 μl loading buffer which contains RbCl, and culture in 5% CO2 at 37° C. for 3 hours. Then remove the loading buffer and wash with wash buffer for 3 times. Screen for the KCNQ opener, dilute testing compound with depolarization buffer, add 200 μl of the above solvent into the cell and allow reaction for 10 minutes. Incubate for 10 minutes, then carefully draw 200 μl supernatant to another 96-well culture plate, use ICR8000 atomic absorption spectrometry to determine the Rb^+ atomic absorption at 780 nm. Based on the equation Fsupern=(Rb_supern/cpd/Rb_supern/d)×100, calculate the corresponding rate of efflux.

KCNQ2/3 = molecular target: T1, KCNQ2/3 (Homo sapiens, UniProt O43525+O43526); experiment: High throughput atomic absorption Rb+ efflux testing, KCNQ2/3; type: cell-based; details: Rb+ efflux by atomic absorption
T1 construct: expressed in transfected cells

male mice [2] = experiment: Pilocarpine-induced seizures experiment; type: in vivo; details: Mus musculus, ip, pilocarpine 250 mg/kg i.p., compound by intraperitoneal injection 1, 5, 10 mg/kg, read-out: ED50 anti-epilepsy effect
Experimental: Pilocarpine-induced seizure is, in general, difficult to treat by using the existing anti-epileptic drug, so it belongs to “drug-resistance epilepsy” model.
Pharmaceutical composition used: the compound number 24 for the testing group, phenyloin for positive control group.
Experimental method: Inject 250 mg/kg pilocarpine into the male mice of each group by intraperitoneal injection, induce pilocarpine-induced seizure, observe walking abnormality caused by seizures activities in 30 minutes (Starr et al, Pharmacology Biochemistry and Behavior 1993, 45, 321-325). Apply intraperitoneal injection. Dosages for the testing group are: 1 mg/kg (body weight) per administration, 5 mg/kg (body weight) per administration, and 10 mg/kg (body weight) per administration respectively. For control group, dosage is 50 mg/kg (body weight) per administration.

KCNQ2/Q3 channel = KCNQ2/Q3 channel (Homo sapiens, UniProt O43525+O43526); experiment: Patch-clamp electrophysiology testing, CHO cell of KCNQ2/Q3 channel; type: cell-based; details: clamping voltage -80 mV, depolarized to -40 mV, FIG. 5a
Excerpt: (2) Testing method: Culture of ovary cell of Chinese hamster (CHO, Chinese Hamster Overy): steadily transfer the CHO cell culture of KCNQ2/Q3 channel into a composition containing 10% fetal bovine serum, 100 U/ml penicillin and DMEM culture solution of streptomycin, and allow digestion passage of trypsin. Spread the cell on a 12 mm round-shaped coverslip and culture on a 24-well cell culture plate.
Record membrane current using patch-clamp technique: The patch-clamp amplifier is HEKA-EPC10. The electrode solution uses amphotericin B (final concentration of 0.1˜0.2 mg/ml) for perforated patch clamp recording. After polishing the microelectrodes, inject the electrode solution and control the to 2˜4MΩ. The electrode solution used for recording CHO cell are (mM): KCl 160, HEPES 5, MgCl2 3, CaCl2 1, EGTA 2, with pH adjusted to 7.4 with KOH; Extracellular electrode composition are (mM): NaCl 160, KCl 2.5, HEPES 10, glucose 8, MgCl2 1, CaCl2 5. After the cell membrane and microelectrodes form a high resistance seal, clamp at −80 mV, wait 5-10 min and record the readings according to different activation procedures.

male mice [3] = experiment: The maximum electric shock experiment; type: in vivo; details: Mus musculus, corneal electrode 26 mA 0.4 second, forced feeding 10, 25, 50 mg/kg, read-out: ED50 anticonvulsant effect
Excerpt: “The maximum electric shock” experiment: The experiment uses electrical method to measure non-specific CNS-induced seizures.
Pharmaceutical composition used: the compound number 21 for the testing group, phenyloin for positive control group.
Experimental method: Apply corneal electrode in male mice of each group, apply 26 mA square wave current for 0.4 second, and forced feeding the pharmaceutical composition after inducing convulsion which is characterized by hindlimb tonic extension (Wlaz et al., Epilepsy Research 1998, 30, 219-229). Dosages for the testing group are: 10 mg/kg (body weight) per administration, 25 mg/kg (body weight) per administration, and 50 mg/kg (body weight) per administration respectively. For control group, dosage is 25 mg/kg (body weight) per administration.

rat = experiment: Amygdala kindling experiment; type: in vivo; details: vs pre-administration, p<0.01 vs control group
Excerpt: This experiment is used to measure the disease progress, when further stimulation is applied, the seizure level of the animal in this model will be increased as in the situation of normal animal.
Pharmaceutical composition used: suspended solution of sodium carboxymethyl cellulose containing the compound number 21 for the testing group, suspended solution of sodium carboxymethyl cellulose for the positive control group, with concentration equal to the suspended solution of the testing group.
Testing method: perform surgery to implant tri-polar electrode into dorsolateral amygdale of rat. After surgery, allow the animal to recover, then administer testing compound or pharmaceutical solvent agent of different dosages to rat of different groups. The animal is treated with electrical stimulation at a value which is +25 μA of the initial discharge threshold on a daily basis for 3-5 weeks, and record each seizure incidence in which the level of seizure, the duration of the seizure, and electrical duration after discharge are recorded (Racine. Electroencephalography and Clinical Neurophysiology 1972, 32, 281-294). Dosage level is the same as that of exemplary embodiment 11.

SMILES | activating effect on the CHO cell of the KCNQ4 potassium ion channel ([1]; Rb+ efflux at 0.03, 0.1, 0.6, 1, 3 and 10 μM, FIG. 4) | EC50 ([1]; Rb+ efflux, 0.03-10 μM, FIG. 4, read-out: EC50) | EC50 (KCNQ2/3) | ED50 (male mice [2]) | EC50 ([1]; Rb+ efflux by atomic absorption, read-out: KCNQ4) | activation of KCNQ2/3 channel current (KCNQ2/Q3 channel) | ED50 (male mice [3]) | seizure level (rat) | time period after discharge process of amygdala (rat)
O=c1cc(-c2cc(F)c(Cl)nc2Cl)[nH]c2c(-c3ccccc3)c(C(F)(F)F)nn12 [Compound 24] | dose-dependent activating effect | 0.21 ± 0.08 µM | 0.078 ± 0.02 µM | 5.1 ± 0.05 mg/kg |  |  |  |  | 
O=c1cc(CCl)[nH]c2c(-c3ccccc3)c(C(F)(F)F)nn12 [Compound 21, 5-chloromethyl-3-phenyl-2-trifluoromethylpyrazolo[1,5-a]pyrimidin-7(4H)-one] |  |  | 3.61 ± 6.02 µM |  | 23.9 ± 0.43 µM | can activate the KCNQ2/3 channel current significantly | 12.2 ± 0.08 mg/kg | increased in the seizure level | shorten time period after discharge process of amygdale
